pIC50, pKd: −log10 of the molar value. Read-outs that look alike come from different tables or passages of the source. Blank lines part the entries; values can stand above or below the compound they belong to.
Legend:
[1] = tested on: p53; assay: p21 luciferase assay (p53 inhibition) in U20S cells upon doxorubicin; format: cell-based; conditions: for % Inhibition (p53 inhibition, p21 luciferase activity) / inhibition at 50 µM: compounds at 50 μM, doxorubicin-treated U20S cells; for Ability to inhibit p53-dependent p21 luciferase activity / p21 expression (SAR, words): compared with lead / ortho-methyl analogs
Procedure: U20S Cells were transfected with p21 luciferase (1 μg) and renilla luciferase (100 ng) vectors in 6 well plate format using Fugene 6 (Roche). Briefly, total of 1.1 micrograms of vector was incubated with […] of Fugene 6 reagent for 30 min. After 3-4 hours of transfection, cell were treated with compounds for overnight, and then exposed to 300 nanogram of doxorubicin for next 24 hours. In these experiments, DMSO, transfected cells with empty vector and cell without doxorubicin were used as controls. DMSO concentration is maintained at 0.01%. Transfected cells with doxorubicin treatment were used as positive control. The luciferase activity was estimated by following the manufacturer's instruction (Promega) in a luminometer. […] The inhibitory activity (IC50) of a small molecule on p21 luciferase activity was obtained from the average of three biological replicates using PRISM software.

[2] = molecular target: CBP BRD (Homo sapiens, UniProt Q92793); assay: Bromodomain binding affinity (tryptophan fluorescence binding assay); conditions: for Kd: Table 4, read-out: CBP (μM), bromodomain binding
Chain of CBP BRD (Q92793 1085-1192 limits assumed): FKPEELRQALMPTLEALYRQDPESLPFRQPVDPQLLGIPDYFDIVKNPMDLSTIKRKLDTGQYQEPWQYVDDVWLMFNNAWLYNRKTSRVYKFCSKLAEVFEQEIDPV
Procedure: (§1) Monitoring change of intrinsic tryptophan fluorescence of a protein induced by ligand binding can be used to determine ligand binding affinity (KD). This assay was used to assess ligand binding to the CBP BRD and ischemin binding to the BRDs from other transcription proteins as follows. The chemical ligands were prepared at 500-850 μM in the PBS buffer. Their serial dilutions by a factor of 1.5 in a 384-wells black plate were carried out using a Tecan EVO200 liquid handler down to a concentration of 0.5 nM. Protein was added to the compounds to a final concentration in each well of 5 μM. Tryptophan fluorescence of the protein was measured (with excitation set at 280 nm, emission at 350 nm) on a Tecan Safire2 reader. Inner filter correction was introduced to take into account the possible intrinsic fluorescence of the compound. […] KD was calculated based on the curve fitting.

[3] = molecular target: T1, PCAF (Homo sapiens, UniProt Q92831); assay: as above; conditions: for Kd: Table 4, read-out: PCAF (μM), bromodomain binding
T1 sequence (Q92831 723-827 limits assumed): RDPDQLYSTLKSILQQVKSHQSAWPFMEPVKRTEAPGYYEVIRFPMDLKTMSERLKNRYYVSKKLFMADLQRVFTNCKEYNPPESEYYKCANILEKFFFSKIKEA
Procedure: as §1

[4] = molecular target: BRD4-1 (Homo sapiens, UniProt O60885); assay: as above; conditions: for Kd: Table 4, read-out: BrD4-1 (μM), bromodomain binding
Procedure: as §1

[5] = molecular target: BRD4-2 (Homo sapiens, UniProt O60885); assay: as above; conditions: for Kd: Table 4, read-out: BrD4-2 (μM), bromodomain binding
Procedure: as §1

[6] = tested on: NF-κB; assay: TNFα-induced NF-kB activation, luciferase in NF-kB response element HEK293 cells; format: cell-based; conditions: Homo sapiens; NF-κB-response element stabilized HEK293 cells; read-out: IC50, inhibition of TNFα-induced activation of NF-κB
Procedure: FIG. 5. […] A. NF-kB activation by TNFa (10 ng/mL). HEK 293 cells ([…]) in a 24-well plate were stabilized with NF-kB response element (NF-kB_RE) was treated with TNF. Twenty-four hours after the treatment, the cells were harvested and lysed, and luciferase activity was determined.
Dysregulation of macrophages and T cell functions trigger inflammatory responses contributing to IBD progression. Given its pro-inflammatory functions, NF-κB inhibition has anti-inflammatory effects, as shown by inhibition of IKK activity, which prevents phoshorylation and release of IκBα from NF-κB.

[7] = tested on: melanoma cells; assay: Melanoma cell proliferation in vitro; format: cell-based; conditions: FIG. 6, FIG. 7
[8] = tested on: U20S cells; assay: BRDU incorporation / cell cycle analysis; format: cell-based; conditions: for Prevention of doxorubicin-induced cell cycle arrest (decrease of BRDU incorporation): compound 50 μM, doxorubicin 5 μM, U20S cells
Procedure: BRDU incorporation assay for cell cycle evaluation was performed in 96 well plates using calorimetric based kit from Calbiochem (Cat# QiA58). Hundred microliter of 1×10^5/ml cells were plated in DMEM media (Mediatech) with 10% fetal bovine serum (FBS). After 12 hours cells were treated with compounds ischemin and MS 119 (50 μM) with or without doxorubicin treatment (5 μM). The controls were DMSO and untreated cells. BRDU was added for 24 hours treatment. After 24 hours cells were fixed and treated with anti-BRDU antibody. After washings, the wells were incubated with peroxidase. After final wash, the color was developed using TMB as substrate and the reaction was stopped with stop solution and optical density was estimated at 450 nm.
DNA damage induced by doxorubicin leads to p53 stimulated cellular responses including cell cycle arrest, damage repair, and apoptosis. To determine the effect of ischemin on dividing U20S cells, U20S cells were treated with 5-bromo-2-deoxyuridine (BRDU) and the incorporated BRDU during in DNA synthesis was measured using an ELISA assay.

[9] = tested on: melanocytes; assay: Proliferation of normal melanocytes; format: cell-based; conditions: in vitro; FIG. 6
[10] = Table 1, read-out: Binding Affinity, Kd BRD4-1
[11] = Table 1, read-out: Binding Affinity, Kd BRD4-2

Compound: CCC(=O)c1cc(N=Nc2cc(S(=O)(=O)O)c(C)cc2C)ccc1O [MS127, 5-(4-hydroxyphenylazo-3-(1-propanone))-2,4-dimethylbenzenesulfonic acid]
% Inhibition (p53 inhibition, p21 luciferase activity) [1]: 86.8%

Kd [2]: > 100 µM
Kd [3]: 4.5 µM
Kd [4]: 1.3 µM
Kd [5]: 2.4 µM
Compound: Cc1cc(/N=N/c2ccc(S(=O)(=O)Nc3ccccn3)cc2)cc(C)c1O [MS0129435]

pKd ([2]; Table 5, read-out: CBP): < 4.00
pKd ([3]; Table 5, read-out: PCAF): < 4.00
pKd ([4]; Table 5, read-out: BrD4-1): 5.35
pKd ([5]; Table 5, read-out: BrD4-2): 4.68
pIC50 [6]: 7.24
Compound: Cc1cc(NNc2ccc(S(=O)(=O)NCc3ccc(C(F)(F)F)cc3)cc2)c(N)cc1O [MS0129433]

Compound: Cc1cc(O)cc(C)c1/N=N/c1ccc(S(=O)(=O)O)cc1 [MS100, 4-(4-hydroxy-2,6-dimethyl-phenylazo)-benzenesulfonic acid]
inhibition at 50 µM [1]: 36.4%

Compound: CCCc1cc(N=Nc2cc(S(=O)(=O)O)c(C)cc2C)ccc1O [MS126, 5-(4-hydroxy-3-propyl-phenylazo)-2,4-dimethylbenzenesulfonic acid]
inhibition at 50 µM [1]: 93.5%

Compound: Cc1cc(C)c(S(=O)(=O)O)cc1/N=N/c1cc(C)c(O)c(C)c1C [MS146, 5-(2,3,5-trimethyl-4-hydroxyphenylazo)-2,4-dimethylbenzenesulfonic acid]
inhibition at 50 µM [1]: 30.8%

pKd ([2]; Table 1, read-out: Binding Affinity, Kd CBP): 4.48
Kd [2]: 33 µM
pKd ([3]; Table 1, read-out: Binding Affinity, Kd PCAF): > 6.00
Kd [3]: < 1 µM
pKd [4, 10]: > 6.00
Kd [4]: < 1 µM
pKd [5, 11]: > 6.00
Kd [5]: < 1 µM
Compound: Cc1cc(/C=C/c2ccc(S(=O)(=O)Nc3ccccn3)cc2)cc(C)c1O [CM0000255]
Inhibition of melanoma cell proliferation [7]: capable of inhibiting melanoma cell proliferation

Compound: Cc1cc(O)cc(C)c1/N=N/c1cc(Cl)c(O)c(S(=O)(=O)O)c1 [MS153]
inhibition at 50 µM [1]: 39%

pKd [4, 10]: 5.68
Kd [4]: 2 µM
pKd [5, 11]: > 6.00
Kd [5]: < 1 µM
Compound: Cc1cc(/C=C/c2ccc(S(=O)(=O)Nc3ccccn3)cc2)c(N)cc1O [CM0000279]
Inhibition of melanoma cell proliferation [7]: capable of inhibiting melanoma cell proliferation

Compound: CCc1cc(/N=N/c2ccc(S(=O)(=O)O)cc2)ccc1O [MS113, 4-(4-hydroxy-3-ethyl-phenylazo)-benzenesulfonic acid]
Ability to inhibit p53-dependent p21 luciferase activity / p21 expression (SAR, words) [1]: reduced activity
inhibition at 50 µM [1]: 25.7%

Compound: Cc1cc(O)c(N)cc1/N=N/c1cc(S(=O)(=O)O)c(C)cc1C [MS135]
inhibition at 50 µM [1]: 54.8%

Compound: Cc1cc(/N=N/c2ccc(S(=O)(=O)O)cc2)c(C)cc1O [MS101, 4-(4-hydroxy-2,5-dimethyl-phenylazo)-benzenesulfonic acid]
Ability to inhibit p53-dependent p21 luciferase activity / p21 expression (SAR, words) [1]: marked increase
inhibition at 50 µM [1]: 82.9%

Compound: Cc1cc(/N=N/c2ccc(S(=O)(=O)O)cc2)cc(C)c1O [MS451]
Ability to inhibit p53-dependent p21 luciferase activity / p21 expression (SAR, words) [1]: marked increase
inhibition at 50 µM [1]: 87.4%

Compound: Cc1cc(C)c(S(=O)(=O)O)cc1N=Nc1cc(C)c(O)c(C(C)C)c1 [MS129, 5-(4-hydroxy-3-isopropyl-5-methyl-phenylazo)-2,4-dimethylbenzenesulfonic acid]
inhibition at 50 µM [1]: 44.6%

Compound: CCc1cc(/N=N/c2cc(S(=O)(=O)O)c(C)cc2C)ccc1O [MS124, 5-(3-ethyl-4-hydroxyphenylazo)-2,4-dimethylbenzenesulfonic acid]
inhibition at 50 µM [1]: 25%

Compound: 5-(4-hydroxy-3,5-isopropyl-phenylazo)-2,4-dimethylbenzenesulfonic acid [MS128]
% Inhibition (p53 inhibition, p21 luciferase activity) [1]: 47.2%

Compound: Cc1cc(C)c(S(=O)(=O)O)cc1/N=N/c1c(C)cc(O)cc1C [MS119, 5-(2,6-dimethyl-4-hydroxyphenylazo)-2,4-dimethylbenzenesulfonic acid]
Prevention of doxorubicin-induced cell cycle arrest (decrease of BRDU incorporation) [8]: prevents a doxorubicin-induced decrease of BRDU incorporation
Prevention of doxorubicin-induced cell cycle arrest (decrease of BRDU incorporation) ([8]; listed as MS 119): almost completely prevented
Inhibition of p21 luciferase activity ([1]; U20S cells, FIG. 1A): Dose-dependent inhibition
inhibition at 50 µM [1]: 54%

pKd [4, 10]: > 6.00
pKd [5, 11]: 5.80
Compound: Cc1cc(C#Cc2ccc(S(=O)(=O)Nc3ccccn3)cc2)cc(C)c1O [CM0000254]

Compound: Cc1cc(/N=N/c2ccc(S(=O)(=O)O)cc2)c(C)c(C)c1O [MS103, 4-(4-hydroxy-2,3,5-trimethyl-phenylazo)-benzenesulfonic acid]
inhibition at 50 µM [1]: 38.9%

Kd [2]: 14 µM
pKd ([2]; Table 5, read-out: CBP): 4.85
Kd [3]: 6.8 µM
pKd ([3]; Table 5, read-out: PCAF): 5.07
pIC50 [6]: 7.24
Compound: Cc1cc(/N=N/c2ccc(S(=O)(=O)Nc3ccccn3)cc2)c(N)cc1O [MS0129436]
Effect on normal melanocytes [9]: no effect
Inhibition of melanoma cell proliferation [7]: inhibits proliferation

Compound: Cc1cc(/N=N/c2ccc(S(=O)(=O)O)cc2)ccc1O [MS450]
Ability to inhibit p53-dependent p21 luciferase activity / p21 expression (SAR, words) [1]: marked increase
inhibition at 50 µM [1]: 85.6%

Compound: CC(C)c1cc(N=Nc2ccc(S(=O)(=O)O)cc2)cc(C(C)C)c1O [MS105, 4-(4-hydroxy-3,5-diisopropyl-phenylazo)-benzenesulfonic acid]
Ability to inhibit p53-dependent p21 luciferase activity / p21 expression (SAR, words) [1]: reduced activity
inhibition at 50 µM [1]: 26.4%

Kd [2]: 82 µM
pKd ([2]; Table 5, read-out: CBP): 4.09
Kd [3]: 88 µM
pKd ([3]; Table 5, read-out: PCAF): 4.06
Kd [4]: 54 µM
pKd ([4]; Table 5, read-out: BrD4-1): 4.27
Kd [5]: 54 µM
pIC50 [6]: 6.66
Compound: O=C(O)c1cc(/N=N/c2ccc(S(=O)(=O)Nc3ccccn3)cc2)ccc1O [Sulfasalazine (MS0123028), Sulfasalazine, reference compound]

Compound: Cc1cc(C)c(S(=O)(=O)O)cc1/N=N/c1cc(C)c(O)c(C)c1 [MS109, 5-(3,5-dimethyl-4-hydroxyphenylazo)-2,4-dimethylbenzenesulfonic acid]
inhibition at 50 µM [1]: 60.1%

Compound: COc1cccc2c1C(=O)c1c(O)c3c(c(O)c1C2=O)C[C@@](O)(C(=O)CO)C[C@@H]3O[C@H]1C[C@H](N)[C@H](O)[C@H](C)O1 [doxorubicin, reference compound]
Decrease of BRDU incorporation ([8]; doxorubicin treatment of U20S cells): 45%

Compound: Cc1cc(N=Nc2ccc(S(=O)(=O)O)cc2)cc(C(C)(C)C)c1O [MS111, 4-(4-hydroxy-3-t-butyl-5-methyl-phenylazo)-benzenesulfonic acid]
Ability to inhibit p53-dependent p21 luciferase activity / p21 expression (SAR, words) [1]: reduced activity
inhibition at 50 µM [1]: 22.8%

pKd [4, 10]: 5.82
pKd [5, 11]: > 6.00
Compound: Cc1cc(/C=C/c2ccc(S(=O)(=O)Nc3ccccn3)cc2)c(NC(=O)OC(C)(C)C)cc1O [CM0000278]

Compound: 5-(4-hydroxy-3-methyl-5-propene-phenylazo)-2,4-methylbenzenesulfonic acid [MS130]
% Inhibition (p53 inhibition, p21 luciferase activity) [1]: 40.4%

Compound: Cc1cc(/N=N/c2cc(S(=O)(=O)O)c(C)cc2C)c(C)cc1O [MS118]
inhibition at 50 µM [1]: 49.7%

Compound: Cc1cc(C)c(S(=O)(=O)O)cc1/N=N/c1ccc(O)c(Cl)c1 [MS131, 5-(3-chloro-4-hydroxyphenylazo)-2,4-dimethylbenzenesulfonic acid]
inhibition at 50 µM [1]: 49.7%

Reference: patent US20140066410A1, “INHIBITORS OF BROMODOMAINS AS MODULATORS OF GENE EXPRESSION” (ICAHN SCHOOL OF MEDICINE AT MOUNT SINAI, priority 2011, published 2014)
